One experiment deals with Hpk1 (Homo sapiens, UniProt Q92918). The experiment is described as follows: SLP76 phosphorylation assay (SLP76 pS376 in lysates of HEK293 cells engineered to express Hpk1 and SLP76). It is filed as cell-based. The note with it: HEK293 cells expressing Hpk1 and SLP76, 4 hours incubation; read-out: pSLP76 (HEK293) (pIC50) (converted). How it is done:
SLP76 Phosphorylation Assay
Hpk1 inhibition in cells was determined by detection of SLP76 phosphorylation at S376 in lysates from HEK293 cells engineered to express Hpk1 and SLP76. Serial dilutions of test compounds were prepared in cell culture medium and 20 μl was transferred into each well of a 96-well plate containing HEK293 cells in 180 μl of culture medium. After incubation for 4 hours at 37° C./5% CO2, the culture medium was removed, plates were put on ice and cells washed with cold Minimal Essential Medium before lysing in 90 μl of cold Mammalian Protein Extraction Reagent (Thermo Scientific, 78501) for 30 minutes on ice. The cell lysates were transferred to another 96-well plate, centrifuged 10 minutes at 3000 rcf (4° C.) and 30 μl transferred to a 96-well High-bind plate (MSD, L15XB-3). After coating overnight at 4° C., the cell lysate was removed, wells were washed with base buffer (TBS, 0.2% Tween-20), and blocking solution (base buffer containing 3% MSD blocker A) was added to each well for 1 hour at room temperature. The blocking solution was removed, the wells were washed with base buffer, and detection antibody (SLP76 pS376) was added in 25 μl base buffer containing 1% MSD blocker A to each well. After a 2 h incubation at room temperature, the detection antibody was removed, wells were washed four times with base buffer, 25 μl SULFO-TAG labeled goat anti-rabbit secondary antibody (MSD, R32AB-1) in base buffer containing 1% MSD blocker A was added to each well and left for 1 hour at room temperature. Wells were washed 4 times with base buffer, 150 μl Read Buffer T was added to each well, and the plates were read in a Mesoscale plate reader (MSD). IC50 values were determined by curve-fitting the electrochemiluminescent signals obtained from the lysates of HEK293 cells expressing Hpk1 and SLP76 treated with test compounds at various concentrations minus the signal obtained from HEK293 cells expressing SLP76 only.

A further experiment concerns the target T1, full-length human Hpk1 (Homo sapiens, UniProt Q92918).
T1 construct: A recombinant fusion protein consisting of full-length human Hpk1; GST (N)
The experiment is described as follows: HPK1 kinase assay (ADP Glo Kinase Assay). It is filed as biochemical. The settings on record: full-length human GST-Hpk1, ADP Glo, 75 μM ATP; read-out: Hpk1 biochemical (pIC50) (converted). The protocol: Pharmacological Part HPK1 Kinase Assay
A recombinant fusion protein consisting of full-length human Hpk1 with an N-terminal Glutatione S-transferase (GST) tag was produced in a baculovirus/insect cell expression system. GST-Hpk1 protein was purified from cell lysates by glutathione sepharose affinity chromatography. Kinase inhibition was determined using the ADP Glo™ Kinase Assay kit (Promega, V9101). Test compounds were prepared by serial dilution in dimethyl sulfoxide (DMSO) and 0.1 μl of each dilution was spotted onto a 384-well white Proxiplate (Perkin Elmer, 6008289). 8 μl of kinase assay buffer (40 mM Tris pH 7.5, 2 mM dithiothreitol (DTT), 0.05% Bovine Serum Albumin, 5 mM MgCl2) containing Hpk1 protein was transferred to each well and incubated for 30-45 minutes at room temperature. The enzymatic reaction was started by adding 2 μl of kinase assay buffer containing 75 μM ATP. After 120 minutes, the reaction was stopped by adding 3 μl of ADP Glo™ reagent (Promega, V9101) and incubating 45 minutes at room temperature.

Molecules are shown by their SMILES. Bounds are passed on as bounds.

T1 sequence (Q92918 whole entry, the tested form may be a part): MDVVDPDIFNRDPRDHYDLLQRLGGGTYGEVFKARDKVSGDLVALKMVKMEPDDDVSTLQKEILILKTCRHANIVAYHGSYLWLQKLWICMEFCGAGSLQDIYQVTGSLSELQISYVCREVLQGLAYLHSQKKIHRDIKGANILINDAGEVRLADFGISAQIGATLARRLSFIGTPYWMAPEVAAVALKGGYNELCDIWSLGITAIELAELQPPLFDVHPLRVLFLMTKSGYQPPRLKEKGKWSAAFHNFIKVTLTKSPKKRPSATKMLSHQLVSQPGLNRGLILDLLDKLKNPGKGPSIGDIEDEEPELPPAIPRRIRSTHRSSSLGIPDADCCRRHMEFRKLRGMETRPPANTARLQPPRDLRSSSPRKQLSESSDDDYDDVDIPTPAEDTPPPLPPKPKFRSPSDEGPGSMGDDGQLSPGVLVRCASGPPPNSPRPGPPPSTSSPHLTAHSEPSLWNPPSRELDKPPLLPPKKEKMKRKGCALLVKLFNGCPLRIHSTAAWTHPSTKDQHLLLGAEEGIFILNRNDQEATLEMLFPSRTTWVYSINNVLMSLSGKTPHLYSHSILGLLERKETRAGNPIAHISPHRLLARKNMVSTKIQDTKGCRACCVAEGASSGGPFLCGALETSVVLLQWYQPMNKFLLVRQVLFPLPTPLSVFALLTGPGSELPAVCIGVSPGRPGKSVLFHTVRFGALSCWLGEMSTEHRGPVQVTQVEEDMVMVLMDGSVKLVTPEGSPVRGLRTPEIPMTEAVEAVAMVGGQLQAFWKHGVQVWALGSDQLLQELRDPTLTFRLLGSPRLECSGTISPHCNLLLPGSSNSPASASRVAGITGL
Chain of Hpk1 (Q92918 whole entry): as the sequence (Q92918 whole entry, the tested form may be a part) above

Take `C[C@H]1CCN[C@@H]1c1cc(-c2cnc(N)c(-c3ccncc3)c2)ccc1C1CCOCC1` (racemic) [Co. 9]: the IC50 on Hpk1 is 2140 nM; at full-length human Hpk1, 42.7 nM.

As to `C[C@@H]1CCN[C@@H]1c1cc(-c2cnc(N)c(-c3ccncc3)c2)ccc1C1CCOCC1` (racemic) [Co. 10], the IC50 at Hpk1 is 282 nM; at full-length human Hpk1, 6.61 nM.

`Nc1ncc(-c2ccc(C3CCOCC3)c([C@@H]3CC4(CC4)CN3)c2)cc1-c1ccnc(F)c1` (single isomer, unassigned) [Co. 5a]: the IC50 is 776 nM on Hpk1 and 10.2 nM at full-length human Hpk1. As to `Nc1ncc(-c2ccc(C3CCOCC3)c([C@@H]3CC4(CC4)CN3)c2)cc1-c1ccncc1` (single isomer, unassigned) [Co. 8a], the figures for the IC50 at Hpk1 and on full-length human Hpk1 were 347 nM and 6.31 nM, respectively. With `Nc1ncc(-c2ccc(C3CCOCC3)c([C@H]3CC4(CC4)CN3)c2)cc1-c1ccncc1` (single isomer, unassigned) [Co. 8b], the IC50 on Hpk1 was 6920 nM; on full-length human Hpk1, 135 nM. For `Nc1ncc(-c2ccc(C3CCOCC3)c([C@@H]3C[S@+]([O-])CCN3)c2)cc1-c1ccnc(F)c1` (single isomer, unassigned) [Co. 15b], the IC50 at Hpk1 is above 10000 nM; at full-length human Hpk1, 200 nM. Taken in the same sequence, the figures for `Nc1ncc(-c2ccc(C3CCOCC3)c([C@@H]3C[S@@+]([O-])CCN3)c2)cc1-c1ccnc(F)c1` (single isomer, unassigned) [Co. 15c] were above 10000 nM and 631 nM. For `Nc1ncc(-c2ccc(C3CCOCC3)c([C@H]3C[S@+]([O-])CCN3)c2)cc1-c1ccnc(F)c1` (single isomer, unassigned) [Co. 15d] the same measures were above 10000 nM and 6920 nM. With `Nc1ncc(-c2ccc(C3CCOCC3)c([C@H]3CC(F)(F)CN3)c2)cc1-c1ccnc(F)c1` (single isomer, unassigned) [Co. 58], the IC50 at Hpk1 was above 10000 nM; on full-length human Hpk1, 8710 nM. Regarding `Nc1ncc(-c2ccc(C3CCOCC3)c([C@@H]3CC(F)(F)CN3)c2)cc1-c1ccnc(F)c1` (single isomer, unassigned) [Co. 59], the IC50 is 5620 nM on Hpk1 and 77.6 nM at full-length human Hpk1. Taken in the same sequence, the figures for `C[C@H]1COC[C@@H](c2cc(-c3cnc(N)c(-c4ccncc4)c3)ccc2C2CCOCC2)N1` (single isomer, unassigned) [Co. 83a] were 1350 nM and 44.7 nM. For `C[C@@H]1COC[C@H](c2cc(-c3cnc(N)c(-c4ccncc4)c3)ccc2C2CCOCC2)N1` (single isomer, unassigned) [Co. 83b], the IC50 on full-length human Hpk1 was 5750 nM. `Nc1ncc(-c2ccc(C3CCOCC3)c([C@@H]3COCCCN3)c2)cc1-c1ccncc1` (single isomer, unassigned) [Co. 93a]: the IC50 is 4570 nM on Hpk1 and 162 nM on full-length human Hpk1.

`Nc1ncc(-c2ccc(C3CCOCC3)c([C@H]3COCCCN3)c2)cc1-c1ccncc1` (single isomer, unassigned) [Co. 93b]: the IC50 on Hpk1 was 1230 nM; at full-length human Hpk1 it was 18.6 nM. On to `Nc1ncc(-c2ccc([C@H]3CCOC3)c([C@@H]3CCCN3)c2)cc1-c1ccnc(F)c1` (single isomer, unassigned) [Co. 101], for which the IC50 was 692 nM at Hpk1 and 3.72 nM at full-length human Hpk1.

For `Nc1ncc(-c2ccc(C3CCOCC3)c([C@@H]3CSCCN3)c2)cc1-c1ccnc(F)c1` (single isomer, unassigned) [Co. 103a], the figures for the IC50 on Hpk1 and at full-length human Hpk1 were 1950 nM and 7.76 nM, respectively. Taken in the same sequence, the figures for `Nc1ncc(-c2ccc(C3CCOCC3)c([C@H]3CSCCN3)c2)cc1-c1ccnc(F)c1` (single isomer, unassigned) [Co. 103b] were above 10000 nM and 603 nM.

For `Nc1ncc(-c2ccc(C3CCOCC3)c([C@H]3CC4(CC4)CN3)c2)cc1-c1ccnc(F)c1` (single isomer, unassigned) [Compound 5b], the IC50 on full-length human Hpk1 was 912 nM. Take `Nc1ncc(-c2ccc(C3CCOCC3)c([C@H]3C[S@@+]([O-])CCN3)c2)cc1-c1ccnc(F)c1` (single isomer, unassigned) [Compound 15a]: the values for the IC50 at Hpk1 and on full-length human Hpk1 were above 10000 nM and 9330 nM, respectively. For `Nc1ncc(-c2ccc(C3CCOCC3)c([C@@H]3CCCN3)c2)cc1-c1ccnc(F)c1` [Co. 1] the same measures were 380 nM and 7.59 nM. Taken in the same sequence, the figures for `Nc1ncc(-c2ccc(N3CCOCC3)c([C@@H]3CCCN3)c2)cc1-c1ccnc(F)c1` [Co. 2] were 871 nM and 41.7 nM.

`Nc1ncc(-c2ccc(C3CCOCC3)c([C@@H]3CCCN3)c2)cc1-c1cncnc1` [Co. 3]: the IC50 at Hpk1 was 5620 nM; on full-length human Hpk1, 53.7 nM.

With `Nc1ncc(-c2ccc(C3CCOCC3)c([C@@H]3CCCN3)c2)cc1-c1cccnc1` [Co. 4], the IC50 on Hpk1 is 3720 nM; on full-length human Hpk1 it was 42.7 nM. Taken in the same sequence, the figures for `Nc1ncc(-c2ccc(N3CCOCC3)c(C3CCCN3)n2)cc1-c1ccncc1` (centres unmarked) [Co. 11] were 5010 nM and 35.5 nM. As for `Nc1ncc(-c2cnc(N3CCOCC3)c(C3CCCN3)c2)cc1-c1ccncc1` (centres unmarked) [Co. 12], the IC50 was 7410 nM on Hpk1 and 112 nM on full-length human Hpk1.

On to `Nc1ncc(-c2ccc(C3CCOCC3)c(-c3cnc[nH]3)c2)cc1-c1ccncc1` [Co. 13], for which the IC50 at Hpk1 is 8910 nM; at full-length human Hpk1, 186 nM.

Turning to `Nc1ncc(-c2ccc(N3CCOCC3)c(-c3nnc[nH]3)c2)cc1-c1ccncc1` [Co. 14], the IC50 at Hpk1 is above 10000 nM; at full-length human Hpk1, 832 nM. For `Nc1ncc(-c2ccc(C3CCOCC3)c(-c3cnn[nH]3)c2)cc1-c1ccncc1` [Co. 15] the same measures were above 10000 nM and 575 nM. Taken in the same sequence, the figures for `Nc1ncc(-c2ccc(C3CCOCC3)c([C@@H]3CCCN3)c2)cc1-c1ccnc(Cl)c1` [Co. 17] were 1580 nM and 15.8 nM. For the compound `Nc1ncc(-c2ccc(C3CCOCC3)c([C@@H]3CCCN3)c2)cc1-c1cnn2c1CCCC2` [Co. 18], the figures for the IC50 at Hpk1 and on full-length human Hpk1 were 1550 nM and 17.8 nM, respectively. For `CS(=O)(=O)n1cc(-c2cc(-c3ccc(C4CCOCC4)c([C@@H]4CCCN4)c3)cnc2N)cn1` [Co. 19] the same measures were 977 nM and 4.27 nM. Taken in the same sequence, the figures for `Nc1ncc(-c2ccc(C3CCOCC3)c([C@@H]3CCCN3)c2)cc1-c1nccs1` [Co. 20] were 170 nM and 3.16 nM. For `Nc1ncc(-c2ccc(C3CCOCC3)c([C@@H]3CCCN3)c2)cc1-c1cnn(CCO)c1` [Co. 21] the same measures were 6920 nM and 18.6 nM. Turning to `CC(C)n1cc(-c2cc(-c3ccc(C4CCOCC4)c([C@@H]4CCCN4)c3)cnc2N)cn1` [Co. 22], the figures for the IC50 on Hpk1 and on full-length human Hpk1 were 339 nM and 2.75 nM, respectively. Taken in the same sequence, the figures for `Nc1ncc(-c2ccc(C3CCOCC3)c([C@@H]3CCCN3)c2)cc1-c1cn[nH]c1` [Co. 23] were 302 nM and 1.02 nM. Taken in the same sequence, the figures for `COc1cnccc1-c1cc(-c2ccc(C3CCOCC3)c([C@@H]3CCCN3)c2)cnc1N` [Co. 24] were 891 nM and 13.2 nM. For `Nc1ncc(-c2ccc(C3CCOCC3)c([C@@H]3CCCN3)c2)cc1-c1ccncc1` [Co. 25] the same measures were 427 nM and 9.77 nM. With `Nc1ncc(-c2ccc(C3CCOCC3)c([C@H]3CCCN3)c2)cc1-c1ccncc1` [Co. 25b], the IC50 is above 10000 nM on Hpk1 and 955 nM on full-length human Hpk1. Taken in the same sequence, the figures for `Nc1ncc(-c2ccc(C3CCOCC3)c([C@@H]3CCCN3)c2)cc1-c1ccncn1` [Co. 26] were 245 nM and 2.04 nM. For `Nc1ncc(-c2ccc(C3CCOCC3)c([C@@H]3CCCN3)c2)cc1-c1ccnc(F)c1F` [Co. 27] the same measures were 240 nM and 5.75 nM. Consider `Cc1cnccc1-c1cc(-c2ccc(C3CCOCC3)c(CN(C)C)c2)cnc1N` [Co. 69], for which, at full-length human Hpk1, the IC50 was 316 nM.

`Nc1ncc(-c2ccc(C3CCOCC3)c(CN3CCC(F)(F)C3)c2)cc1-c1ccncc1` [Co. 107]: the IC50 at full-length human Hpk1 was 832 nM.

These data come from patent US12492194B2, “HPK1 inhibitors” (Janssen Pharmaceutica NV, priority 2019, dated 2025).
